Reference: patent US6110961A, “Phenoxathin derivatives as inhibitors of monoamine oxidase” (Krenitsky Pharmaceuticals, Inc., priority 1999, dated 2000)

target: T1, MAO-A (Rattus norvegicus, UniProt P21396); assay: MAO-A inhibition in mitochondrial extracts of rat brain (in vitro, double-label assay); format: biochemical; details: [3H]serotonin 0.2 mM substrate
T1 construct: mitochondrial extracts of rat brain; from tissue; host or cells: rat brain, mitochondrial extracts
T1 sequence (P21396 1-526): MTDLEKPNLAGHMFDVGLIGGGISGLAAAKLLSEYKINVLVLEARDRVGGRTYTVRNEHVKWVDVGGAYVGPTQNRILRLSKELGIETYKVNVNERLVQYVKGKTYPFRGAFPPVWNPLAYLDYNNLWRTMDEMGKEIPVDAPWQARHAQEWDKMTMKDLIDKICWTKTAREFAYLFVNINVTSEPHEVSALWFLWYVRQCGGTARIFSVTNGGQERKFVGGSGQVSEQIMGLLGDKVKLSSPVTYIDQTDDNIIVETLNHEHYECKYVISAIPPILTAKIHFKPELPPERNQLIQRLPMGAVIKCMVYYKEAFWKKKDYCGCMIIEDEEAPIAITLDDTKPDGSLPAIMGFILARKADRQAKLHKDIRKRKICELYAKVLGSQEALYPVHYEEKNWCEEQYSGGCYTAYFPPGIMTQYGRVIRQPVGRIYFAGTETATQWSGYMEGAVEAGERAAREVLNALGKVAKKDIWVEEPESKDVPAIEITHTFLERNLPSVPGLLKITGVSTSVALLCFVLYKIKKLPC
Procedure: MAO was assayed with [^3 H]serotonin (0.2 mM, 5 Ci/mole) and [^14 C]β-phenethylamine (10 μM, 3 Ci/mole) as substrates in a double-label assay (white and Glassman, J. Neurochem. 29:987-97 (1977)). Under these conditions, serotonin is selectively metabolized by MAO-A and β-phenethylamine by MAO-B. […]
Compounds of formula (I) produced a potent selective inhibition of MAO-A in mitochondrial extracts of rat brain, the IC50 s (concentration producing 50% inhibition) being shown in Table I. This inhibition was competitive vs. the substrates serotonin or tyramine.
The results are shown in Table 1 with the IC50 being the concentration providing 50% inhibition. No significant inhibition of MAO-B was found with these compounds.

IC50 [nM]	MAO-A Inhibition (rat brain) in vitro IC50	SMILES
14	–	CCC(C)Oc1ccc2c(c1)Oc1ccccc1S2(=O)=O (racemic) [Compound 13, (rac)-3-(1-methylpropoxy)phenoxathiin-10,10-dioxide]
20	–	CC(CO)Oc1ccc2c(c1)Oc1ccccc1S2(=O)=O (racemic) [Compound 18, (rac)-2-(3-phenoxathiinyloxy)propanol S,S-dioxide]
5	–	CC(Oc1ccc2c(c1)Oc1ccccc1S2(=O)=O)C(F)(F)F (racemic) [Compound 20, (rac)-3-(2,2,2-trifluoro-1-methylethoxy)phenoxathiin-10,10-dioxide]
1.8	–	CC(Oc1ccc2c(c1)Oc1ccccc1S2(=O)=O)C(F)F (racemic) [Compound 25, (rac)-3-(1-(difluoromethyl)ethoxy)phenoxathiin-10,10-dioxide]
–	active	O=S1(=O)c2ccccc2Oc2cc(OC(CF)C(F)(F)F)ccc21 (racemic) [Compound 26, (rac)-3-(2-fluoro-1-(trifluoromethyl)ethoxy)phenoxathiin-10,10-dioxide]
–	active	CC(CF)Oc1ccc2c(c1)Oc1ccccc1S2(=O)=O (racemic) [Compound 27, (rac)-3-(1-(fluoromethyl)ethoxy)phenoxathiin-10,10-dioxide]
5	–	O=S1(=O)c2ccccc2Oc2cc(OC(CO)C(F)(F)F)ccc21 (racemic) [Compound 28, (rac)-2-(3-phenoxathiinyloxy)-2-(trifluoromethyl)ethanol-S,S-dioxide]
2	–	CC(Oc1ccc2c(c1)Oc1ccccc1S2(=O)=O)C(F)(F)F (single isomer, unassigned) [Compound 29, (R*)-3-(2,2,2-trifluoro-1-methylethoxy)phenoxathiin-10,10-dioxide]
14	–	CC(Oc1ccc2c(c1)Oc1ccccc1S2(=O)=O)C(F)(F)F (single isomer, unassigned) [Compound 30, (S*)-3-(2,2,2-trifluoro-1-methylethoxy)phenoxathiin-10,10-dioxide]
1.1	–	CC(C)Oc1cc(F)c2c(c1)Oc1ccccc1S2(=O)=O [Compound 1, 1-fluoro-3-isopropoxyphenoxathiin 10,10-dioxide]
2	–	CCOc1ccc2c(c1)Oc1ccccc1S2(=O)=O [Compound 2, 3-ethoxyphenoxathiin 10,10-dioxide]
2.5	–	CCCOc1ccc2c(c1)Oc1ccccc1S2(=O)=O [Compound 3, 3-propoxyphenoxathiin 10,10-dioxide]
3	–	CC(C)Oc1cc2c(c(F)c1F)S(=O)(=O)c1ccccc1O2 [Compound 4, 1,2-difluoro-3-isopropoxyphenoxathiin 10,10-dioxide]
3.4	–	CC(C)Oc1ccc2c(c1)Oc1ccccc1S2(=O)=O [Compound 5, 3-isopropoxyphenoxathiin 10,10-dioxide]
4	–	CC[C@@H](C)Oc1ccc2c(c1)Oc1ccccc1S2(=O)=O [Compound 6, (R)-3-(1-methylpropoxy)phenoxathiin 10,10-dioxide]
4	–	CC[C@H](C)Oc1ccc2c(c1)Oc1ccccc1S2(=O)=O [Compound 7, (S)-3-(1-methylpropoxy)phenoxathiin 10,10-dioxide]
6	–	CC(C)Oc1ccc2c(c1)Oc1cc(F)c(F)cc1S2(=O)=O [Compound 9, 7,8-difluoro-3-isopropoxyphenoxathiin-10,10-dioxide]
8	–	CC(C)Oc1ccc2c(c1)Oc1cccc(F)c1S2(=O)=O [Compound 10, 9-fluoro-3-isopropoxyphenoxathiin 10,10-dioxide]
9	–	CC(C)Oc1ccc2c(c1)Oc1cc(F)ccc1S2(=O)=O [Compound 11, 7-fluoro-3-isopropoxyphenoxathiin 10,10-dioxide]
12	–	CC(C)Oc1cc2c(cc1F)S(=O)(=O)c1ccccc1O2 [Compound 12, 2-fluoro-3-isopropoxyphenoxathiin 10,10-dioxide]
20	–	COc1ccc2c(c1)Oc1ccccc1S2(=O)=O [Compound 14, 3-methoxyphenoxathiin 10,10-dioxide]
35	–	CC(C)Oc1cc2c(cc1F)S(=O)(=O)c1ccc(F)cc1O2 [Compound 16, 2,7-difluoro-3-isopropoxyphenoxathiin 10,10-dioxide]
55	–	CCCCCOc1ccc2c(c1)Oc1ccccc1S2(=O)=O [Compound 17, 3-(pentyloxy)phenoxathiin 10,10-dioxide]
5	–	CC(C)Oc1cc(F)c2c(c1)Oc1cc(F)ccc1S2(=O)=O [Compound 19, 1,7-difluoro-3-isopropoxyphenoxathiin 10,10-dioxide]
70	–	C[C@@H](CO)Oc1ccc2c(c1)Oc1ccccc1S2(=O)=O [Compound 21, (S)-(+)-2-(3-phenoxathiinyloxy)propanol S,S-dioxide]
8	–	O=S1(=O)c2ccccc2Oc2cc(OCC(F)(F)F)ccc21 [Compound 22, 3-(2,2,2-trifluoroethoxy)phenoxathiin 10,10-dioxide]
2	–	O=S1(=O)c2ccccc2Oc2cc(OC(CF)CF)ccc21 [Compound 23, 3-[2-fluoro-1-(fluoromethyl)ethoxy]phenoxathiin-10,10-dioxide]
3.5	–	O=S1(=O)c2ccccc2Oc2cc(OC(C(F)F)C(F)F)ccc21 [Compound 24, 3-(2,2-(difluoro)-1-(difluoromethyl)ethoxy)phenoxathiin-10,10-dioxide]
–	active	O=S1(=O)c2ccc(F)cc2Oc2cc(OCC(F)(F)F)ccc21 [Compound 31, 3-fluoro-7-(2,2,2-trifluoroethoxy)phenoxathiin-10,10-dioxide]

SMILES	IC50 [nM]	MAO-A Inhibition (rat brain) in vitro IC50
CCCCOc1ccc2c(c1)Oc1ccccc1S2(=O)=O [Compound 8, 3-butoxyphenoxathiin 10,10-dioxide]	5	–
CC(C)(C)Oc1ccc2c(c1)Oc1ccccc1S2(=O)=O [Compound 15, 3-tert-butoxyphenoxathiin 10,10-dioxide]	26	–

test system: liver MAO-A; assay: not given; details: single oral dose giving approximately 80% inhibition of brain MAO-A; 3 hours

SMILES	inhibition of liver MAO-A [%]
NNCCc1ccccc1 [phenelzine]	≥ 90

test system: MAO; assay: not given; details: background art; cited from earlier work

SMILES	selectivity and reversibility of MAO inhibition
N[C@@H]1C[C@H]1c1ccccc1 (relative stereo) [tranylcypromine]	non-selective, irreversible inhibitors
Cc1cc(C(=O)NNCc2ccccc2)no1 [isocarboxazid]	non-selective, irreversible inhibitors
NNCCc1ccccc1 [phenelzine]	non-selective, irreversible inhibitors
